Results as given in patent US20250270190A1, “KIT INHIBITORS” (BLUEPRINT MEDICINES CORPORATION, priority 2022, published 2025).
Where a name gives a salt, the structure may show the parent alone.

biological target: T1, c-kit autophosphorylation (Phospho c-Kit Tyr721) in HMC 1.1 (exon 11/13) cells, V654A (Homo sapiens, UniProt P10721, V560G/V654A); assay: pKIT Meso Scale Discovery (MSD) assay, inhibition of autophosphorylation of KIT, HMC1.1_V654A; type: cell-based; conditions: Table 1, cell line not named for Table 1, b1056 names pKIT HMC1.1_V654A, read-out: Code (IC50 for inhibition of autophosphorylation of KIT, pKIT MSD assay)
T1 construct: endogenous in cells; host or cells: HMC 1.1 (exon 11/13) cells
T1 sequence (P10721 26-976 V560G/V654A): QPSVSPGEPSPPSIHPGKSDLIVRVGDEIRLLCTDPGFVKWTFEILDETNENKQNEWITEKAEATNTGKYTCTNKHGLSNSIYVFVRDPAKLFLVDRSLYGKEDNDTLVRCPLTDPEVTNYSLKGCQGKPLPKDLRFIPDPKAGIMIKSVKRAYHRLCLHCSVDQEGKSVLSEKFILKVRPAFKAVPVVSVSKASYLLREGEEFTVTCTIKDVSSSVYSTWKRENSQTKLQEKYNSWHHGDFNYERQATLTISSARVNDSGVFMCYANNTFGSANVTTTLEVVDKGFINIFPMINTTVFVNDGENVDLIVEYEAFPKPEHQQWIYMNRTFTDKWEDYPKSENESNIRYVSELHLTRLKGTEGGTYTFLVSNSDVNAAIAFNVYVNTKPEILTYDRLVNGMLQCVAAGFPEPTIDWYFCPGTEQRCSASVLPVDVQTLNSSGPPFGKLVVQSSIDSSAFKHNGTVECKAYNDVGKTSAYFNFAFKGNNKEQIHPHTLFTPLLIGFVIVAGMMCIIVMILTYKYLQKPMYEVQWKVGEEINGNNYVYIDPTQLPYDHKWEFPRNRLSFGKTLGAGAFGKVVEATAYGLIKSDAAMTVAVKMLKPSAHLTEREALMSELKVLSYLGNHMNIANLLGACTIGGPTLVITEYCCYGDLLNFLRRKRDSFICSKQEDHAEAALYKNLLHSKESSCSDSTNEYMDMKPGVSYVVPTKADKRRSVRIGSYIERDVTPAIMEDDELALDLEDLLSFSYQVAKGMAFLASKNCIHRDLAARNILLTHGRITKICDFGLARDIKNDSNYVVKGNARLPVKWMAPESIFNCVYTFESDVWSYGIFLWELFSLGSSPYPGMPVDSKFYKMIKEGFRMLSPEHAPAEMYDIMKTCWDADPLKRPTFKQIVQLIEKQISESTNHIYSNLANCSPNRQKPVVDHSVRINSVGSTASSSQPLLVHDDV
In short: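 HMC1.1 cells were serum-starved for 4 h in serum-free, iron-free, phenol red-free IMDM, then treated with compound in dose-response for 90 min at 37 °C. Staurosporine and DMSO served as controls. Lysates were analysed by MSD electrochemiluminescence immunoassay for phospho-c-Kit Tyr721, and % inhibition of autophosphorylation was derived.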

Row | IC50 | Structure (SMILES)
1 | < 10 nM | Nc1cc(Nc2cc(OC(F)(F)F)c(-c3cnn(C4CC4)c3)cn2)nc(C(F)F)n1 [Compound 154, N4-(5-(1-cyclopropyl-1H-pyrazol-4-yl)-4-(trifluoromethoxy)pyridin-2-yl)-2-(difluoromethyl)pyrimidine-4,6-diamine]
2 | > 40 nM | CNCCn1cc(-c2cnc(Nc3cc(N)nc(C(F)F)n3)cc2OC2COC2)cn1 [Compound 175, 2-(difluoromethyl)-N4-(5-(1-(2-(methylamino)ethyl)-1H-pyrazol-4-yl)-4-(oxetan-3-yloxy)pyridin-2-yl)pyrimidine-4,6-diamine]
3 | 10 to 40 nM | COc1cc(Nc2cc(N)nc(C(F)F)n2)ncc1-c1cnn(C(F)(F)F)c1 [Compound 94, 2-(difluoromethyl)-N4-(4-methoxy-5-(1-(trifluoromethyl)-1H-pyrazol-4-yl)pyridin-2-yl)pyrimidine-4,6-diamine]
4 | 10 to 40 nM | CNc1cc(Nc2cc(N)nc(C(F)F)n2)ncc1-c1cnn(C)n1 [Compound 18, 2-(difluoromethyl)-N4-(5-(2-methyl-2H-1,2,3-triazol-4-yl)-4-(methylamino)pyridin-2-yl)pyrimidine-4,6-diamine]
5 | < 10 nM | CC(C)Oc1cc(Nc2cc(N)nc([C@H](C)F)n2)ncc1-c1cnn(C2COC2)c1 [Compound 129, (S)-2-(1-fluoroethyl)-N4-(4-isopropoxy-5-(1-(oxetan-3-yl)-1H-pyrazol-4-yl)pyridin-2-yl)pyrimidine-4,6-diamine]
6 | < 10 nM | Nc1cc(Nc2cc(OC3CC3)c(-c3cnn([C@H]4CCOC4)c3)cn2)nc(C(F)F)n1 (single isomer, unassigned) [Compound 164, (S)—N4-(4-cyclopropoxy-5-(1-(tetrahydrofuran-3-yl)-1H-pyrazol-4-yl)pyridin-2-yl)-2-(difluoromethyl)pyrimidine-4,6-diamine or (R)—N4-(4-cyclopropoxy-5-(1-(tetrahydrofuran-3-yl)-1H-pyrazol-4-yl)pyridin-2-yl)-2-(difluoromethyl)pyrimidine-4,6-diamine]

Second part, the compound before the results:

Row | Structure (SMILES) | IC50
7 | C[C@H](CF)Nc1cc(Nc2cc(N)nc(C(F)F)n2)ncc1C(=O)NCc1ccccn1 [Compound 187, (R)-6-((6-amino-2-(difluoromethyl)pyrimidin-4-yl)amino)-4-((1-fluoropropan-2-yl)amino)-N-(pyridin-2-ylmethyl)nicotinamide] | 10 to 40 nM
8 | CCNc1cc(Nc2cc(N)nc(CF)n2)ncc1C(=O)NC12CC(CO)(C1)C2 [Compound 96, 6-((6-amino-2-(fluoromethyl)pyrimidin-4-yl)amino)-4-(ethylamino)-N-(3-(hydroxymethyl)bicyclo[1.1.1]pentan-1-yl)nicotinamide] | 10 to 40 nM
9 | CC(C)(O)Cn1cc(-c2cnc(Nc3cc(N)nc(C(F)F)n3)cc2OC(F)(F)F)cn1 [Compound 198, 1-(4-(6-((6-amino-2-(difluoromethyl)pyrimidin-4-yl)amino)-4-(trifluoromethoxy)pyridin-3-yl)-1H-pyrazol-1-yl)-2-methylpropan-2-ol] | < 10 nM
10 | COc1cc(Nc2cc(N)nc(C(F)F)n2)ncc1-c1cnn(CCO)c1 [Compound 59, 2-(4-(6-((6-amino-2-(difluoromethyl)pyrimidin-4-yl)amino)-4-methoxypyridin-3-yl)-1H-pyrazol-1-yl)ethan-1-ol trifluoroacetate] | 10 to 40 nM
11 | C[C@H](CF)Nc1cc(Nc2cc(N)nc(C(F)F)n2)ncc1C(=O)NC12CC(CO)(C1)C2 [Compound 189, (R)-6-((6-amino-2-(difluoromethyl)pyrimidin-4-yl)amino)-4-((1-fluoropropan-2-yl)amino)-N-(3-(hydroxymethyl)bicyclo[1.1.1]pentan-1-yl)nicotinamide] | 10 to 40 nM
12 | Cn1cc(-c2cnc(Nc3cc(N)nc(C(F)F)n3)cc2OC2COC2)cn1 [Compound 77, 2-(difluoromethyl)-N4-(5-(1-methyl-1H-pyrazol-4-yl)-4-(oxetan-3-yloxy)pyridin-2-yl)pyrimidine-4,6-diamine] | < 10 nM
